The record followed here is US6242468A, “Carbamate and urea compositions and neurotrophic uses” (priority 1998, dated 2001).

In this experiment the test system is TH-positive dopaminergic neurons in the striatum. The experiment is described as follows: MPTP Model of Parkinson's Disease; recovery of TH-positive dopaminergic neurons in the striatum. The format is in vivo, male CD1 white mice. The settings on record: 4 mg/kg s.c.; MPTP 30 mg/kg i.p. for 5 days; compound along with MPTP and 5 further days; 18 days following MPTP. As for the experimental part: MPTP lesioning of dopaminergic neurons in mice was used as an animal model of Parkinson's Disease. Four week old male CD1 white mice were dosed i.p. with 30 mg/kg of MPTP for 5 days. Test compounds (4 mg/kg), or vehicle, were administered s.c. along with the MPTP for 5 days, as well as for an additional 5 days following cessation of MPTP treatment. At 18 days following MPTP treatment, the animals were sacrificed and the striata were dissected and perfusion-fixed. Immunostaining was performed on saggital and coronal brain sections using anti-tyrosine hydroxylase […] to quantitate survival and recovery of dopaminergic neurons. In animals treated with MPTP and vehicle, a substantial loss of functional dopaminergic terminals was observed as compared to non-lesioned animals. […] Table III presents quantitation for the recovery of TH-positive dopaminergic neurons in the striatum of animals receiving compounds 1, 3, 4 and 5 in this model.
Take `O=C(OCCCc1cccnc1)[C@@H]1CCCN1C(=S)NC12CC3CC(CC(C3)C1)C2` [Example 5, 3-(3-pyridyl)-1-propyl (2S)-1-[(1-adamantyl)thiocarbamoyl]pyrrolidine-2-carboxylate]: the “% Recovery of TH Immunostaining” value was determined as 52.32%.
As to `CCC(C)CNC(=O)N1CCC[C@H]1C(=O)OCCCc1cccnc1` (stereo partly drawn) [Example 1, 3-(3-pyridyl)-1-propyl (2S)-1-[(2-methylbutyl)carbamoyl]pyrrolidine-2-carboxylate], the “% Recovery of TH Immunostaining” value came to 27.47%.
The value for `O=C(OCCCc1cccnc1)[C@@H]1CCCN1C(=O)NC1CCCCC1` [Example 4, 3-(3-pyridyl)-1-propyl (2S)-1-[(cyclohexyl)carbamoyl]-pyrrolidine-2-carboxylate] was 59.79%; that for `O=C(OCCCc1cccnc1)[C@@H]1CCCN1C(=S)NC1CCCCC1` [Example 3, 3-(3-pyridyl)-1-propyl (2S)-1-[(cyclohexyl)thiocarbamoyl]-pyrrolidine-2-carboxylate] was 56.13%.
